Measurements published in patent US20040087653A1, “Methods for the treatment of respiratory diseases and conditions with a selective iNOS inhibitor and a PDE inhibitor and compositions therefor” (priority 2002, published 2004).
Structures can show the parent of a compound that is named as a salt.

What was measured:
[1] = molecular target: T1, human endothelial constitutive NOS (hecNOS) (Homo sapiens, UniProt P29474); experiment: Citrulline assay for nitric oxide synthase, hecNOS; type: biochemical; conditions: averages across all experiments and all lots; 30 μM L-arginine
T1 construct: made in house; host or cells: Sf9 insect cells, baculovirus vector
From the text: Nitric oxide synthase (NOS) activity can be measured by monitoring the conversion of L-[2,3-^3H]-arginine to L-[2,3-^3H]-citrulline (Bredt and Snyder, Proc. Natl. Acad. Sci. U.S.A., 87, 682-685, 1990 and Moore et al, J. Med. Chem., 39, 669-672, 1996). Human inducible NOS (hiNOS), human endothelial constitutive_NOS (hecNOS) and human neuronal constitutive NOS (hncNOS) are each cloned from RNA extracted from human tissue. The cDNA for human inducible NOS (hiNOS) is isolated from a λcDNA library made from RNA extracted from a colon sample from a patient with ulcerative colitis. The cDNA for human endothelial constitutive NOS (hecNOS) is isolated from a λcDNA library made from RNA extracted from human umbilical vein endothelial cells (HUVEC) and the cDNA for human neuronal constitutive NOS (hncNOS) is isolated from a λcDNA library made from RNA extracted from human cerebellum obtained from a cadaver. The recombinant enzymes are expressed in Sf9 insect cells using a baculovirus vector (Rodi et al, in The Biology of Nitric Oxide, Pt. 4: Enzymology, Biochemistry and Immunology; Moncada, S., Feelisch, M., Busse, R., Higgs, E., Eds.; Portland Press Ltd.: London, 1995; pp 447-450). […] After mixing the resin is allowed to settle and L-[2,3-^3H]-Citrulline formation is determined by counting aliquots of the supernatant with a liquid scintillation counter. […]

[2] = tested on: exhaled breath nitric oxide (NO); experiment: Clinical study: exhaled breath NO after single oral dose; type: in vivo, human
Protocol: (§1) A single center study was performed at the National Heart and Lung Institute (NHLI) Clinical Studies Unit in London, UK. The clinical protocol was submitted and accepted by the Ethics Committee of the Royal Brompton Hospital Trust, and the study was carried out according to Good Clinical Practice standards. Each subject provided written informed consent.
(§2) Twenty-four, adult, healthy volunteers and 24 patients with mild asthma participated in this study. All subjects were lifelong non-smokers. Asthma patients (n=24) had mild asthma according to American Thoracic Society Criteria, with medication on an as required basis with inhaled albuterol only. […] All asthmatic patients had baseline exhaled breath NO levels of >15 parts per billion (ppb). Healthy control (n=24) subjects were matched for age and sex, and had no clinically significant disease. Healthy subjects were required to have baseline exhaled NO levels between 4 and 9 ppb.
(§3) The study included 2 panels of healthy volunteers and asthmatic patients who received in a double-blind, randomized manner, a single dose of oral compound NN or placebo. The study was carried out in two phases according to the dose of compound NN under investigation. The first panel consisted of patients with mild-to-moderate asthma (n=12) and healthy subjects (n=12) who received single doses of 20 mg of compound NN and placebo, while the second panel of mild-to-moderate asthmatics (n=12) and healthy subjects (n=12) received single doses of 200 mg of compound NN and placebo. No patient or subject participated in both panels of this study. Evaluation of the first panel was completed before moving on to the second panel. The study evaluated the tolerability and pharmacokinetics of orally-administered compound NN and monitored levels of exhaled breath NO.
Measurement of exhaled NO: Exhaled NO was measured using a chemoluminescence analyzer (Logan 2000, Rochester, UK) and methods in accordance with International Guidelines. The analyser was calibrated daily using a certified NO mixture of 50 to 200 ppb (BOC Special gases, Guildford, UK) and ambient air NO recordings made on an hourly basis. Subjects were asked to refrain from strenuous exercise before any measurement. Each subject was seated for at least 5 minutes before any measurement was taken and remained seated throughout the procedure. […] Two successive recordings were taken, and the average value was calculated.
Statistical methods for clinical data: Exhaled NO data, including change from baseline and the percentage change, were tested for normality using the Shapiro-Wilks test. […] The area under the curve (AUC) for the change from baseline and the percentage change, and the differences between active and placebo were calculated. […]

[3] = Clinical study: tolerability, FEV1, blood pressure, heart rate, laboratory parameters; type: in vivo, human; conditions: single oral dose
Protocol: as §1, §2, §3
Forced expiratory volume in 1 sec (FEV1) and heart rate data had no significant deviations from normality using the Shapiro-Wilks test, therefore parametric statistical methods were used, and the significance of the change from baseline was tested using a paired […]. […]

[4] = molecular target: i-NOS (Homo sapiens, UniProt P35228); experiment: i-NOS inhibition, comparison with NIL amides
Chain of i-NOS (P35228 whole entry): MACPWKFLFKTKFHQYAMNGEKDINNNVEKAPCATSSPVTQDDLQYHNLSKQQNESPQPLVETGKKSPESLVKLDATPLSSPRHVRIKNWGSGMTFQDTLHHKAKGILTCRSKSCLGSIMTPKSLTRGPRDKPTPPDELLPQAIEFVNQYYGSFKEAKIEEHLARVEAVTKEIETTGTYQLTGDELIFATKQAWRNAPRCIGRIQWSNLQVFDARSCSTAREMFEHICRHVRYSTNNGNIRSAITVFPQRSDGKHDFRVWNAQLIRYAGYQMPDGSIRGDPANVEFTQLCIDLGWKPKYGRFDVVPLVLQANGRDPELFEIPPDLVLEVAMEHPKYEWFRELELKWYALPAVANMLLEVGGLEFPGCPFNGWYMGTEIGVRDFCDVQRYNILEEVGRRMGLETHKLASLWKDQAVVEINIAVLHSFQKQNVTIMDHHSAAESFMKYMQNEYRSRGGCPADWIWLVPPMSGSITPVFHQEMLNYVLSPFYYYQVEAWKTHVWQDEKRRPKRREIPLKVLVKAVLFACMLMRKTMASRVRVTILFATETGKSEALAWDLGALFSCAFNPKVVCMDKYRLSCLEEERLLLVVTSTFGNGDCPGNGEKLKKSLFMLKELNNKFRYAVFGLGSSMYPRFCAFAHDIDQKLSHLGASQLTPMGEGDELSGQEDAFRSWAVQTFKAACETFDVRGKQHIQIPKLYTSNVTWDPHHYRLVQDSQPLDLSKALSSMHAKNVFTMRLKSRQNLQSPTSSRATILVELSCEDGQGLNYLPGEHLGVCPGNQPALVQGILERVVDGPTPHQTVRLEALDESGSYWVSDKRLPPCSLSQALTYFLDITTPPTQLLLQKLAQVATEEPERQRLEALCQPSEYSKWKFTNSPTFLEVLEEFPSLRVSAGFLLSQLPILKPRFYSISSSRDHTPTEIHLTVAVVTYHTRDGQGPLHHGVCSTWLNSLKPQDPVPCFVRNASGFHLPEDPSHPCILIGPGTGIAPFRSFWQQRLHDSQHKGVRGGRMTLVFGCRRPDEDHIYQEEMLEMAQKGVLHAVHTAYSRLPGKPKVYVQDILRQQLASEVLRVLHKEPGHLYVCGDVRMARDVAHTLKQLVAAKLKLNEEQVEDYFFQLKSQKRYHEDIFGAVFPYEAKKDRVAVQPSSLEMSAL

[5] = healthy volunteers and asthmatics

CC(=N)NCCCC[C@H](N)C(=O)Nc1nnn[nH]1 [Example NN, 2S-amino-6-[(1-iminoethyl)amino]-N-(1H-tetrazol-5-yl)hexanamide, hydrate, dihydrochloride]
IC50 [1]: 2.42 mM | inhibition of exhaled NO in asthma ([2]; 200 mg single oral dose): 95% | residual exhaled NO [2, 5]: < 1 ppb | change in exhaled NO ([2]; single oral dose 20 mg or 200 mg, healthy volunteers and asthmatics, 72 hour assessment): rapid reduction in exhaled NO | duration of the decrease in exhaled breath NO ([2]; single oral dose, healthy volunteers and asthmatics): 3 days | effect on haematology or blood biochemistry [3]: no effect | effects on heart rate, blood pressure and FEV1 [3]: no apparent effects | tolerability [3, 5]: well tolerated | i-NOS inhibitory potency compared with NIL amide or NIL dimethylamide [4]: more potent i-NOS inhibitor
